From patent US12252524B2, “GIP/GLP1 co-agonist compounds” (Eli Lilly and Company, priority 2018, dated 2025)
Numbered stars: 1 amine (or outer) side, 2 acyl side, 3 side chain; on linkers, the order of the positions; unused ones are H or OH. Square brackets hold non-standard residues; d marks the D form. Side chains are listed from the residue outwards. Peptide text beside a SMILES is read from it. * marks the point of attachment. C20 diacid = O=C(O)CCCCCCCCCCCCCCCCCCC(=O)*; C18 diacid = O=C(O)CCCCCCCCCCCCCCCCC(=O)*; αMePhe(2-F) = C[C@](N)(Cc1ccccc1F)C(=O)O; γGlu = O=C(O)[C@H](CCC(=O)[*:2])N[*:1]; αMeL = CC(C)C[C@](C)(N)C(=O)O; AEEA = NCCOCCOCC(=O)O; Aib = CC(C)(N)C(=O)O

Experiments:
[1] = target: human GLP-1 receptor (GLP-1R) (Homo sapiens, UniProt P43220); test: cAMP pharmacological functional assay in presence of casein, hGLP-1R; type: cell-based; conditions: HEK293 cells expressing hGLP-1R, 0.1% Casein, geometric mean; read-out: hGLP1R cAMP Rel EC50 nM (SEM, n)
[2] = target: T1, gastric inhibitory peptide receptor (GIPR) (Homo sapiens, UniProt P48546); test: cAMP pharmacological functional assay in presence of casein, hGIPR; type: cell-based; conditions: HEK293 cells expressing hGIPR, 0.1% Casein, geometric mean; read-out: hGIPR cAMP Rel EC50 nM (SEM, n)
T1 sequence (P48546 22-466): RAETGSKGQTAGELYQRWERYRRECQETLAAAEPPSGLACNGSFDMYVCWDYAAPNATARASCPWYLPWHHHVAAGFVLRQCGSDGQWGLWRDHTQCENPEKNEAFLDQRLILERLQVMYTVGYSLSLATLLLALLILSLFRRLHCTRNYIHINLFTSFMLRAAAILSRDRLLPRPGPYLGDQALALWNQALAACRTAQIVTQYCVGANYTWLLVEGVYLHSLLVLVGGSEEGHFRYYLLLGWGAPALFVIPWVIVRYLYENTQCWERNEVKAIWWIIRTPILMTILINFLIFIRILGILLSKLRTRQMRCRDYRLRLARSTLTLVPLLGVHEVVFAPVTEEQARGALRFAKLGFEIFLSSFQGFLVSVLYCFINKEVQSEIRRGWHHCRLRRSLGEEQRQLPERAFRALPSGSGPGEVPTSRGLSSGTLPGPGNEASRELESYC

human GLP-1 receptor (GLP-1R), sequence (P43220 24-463): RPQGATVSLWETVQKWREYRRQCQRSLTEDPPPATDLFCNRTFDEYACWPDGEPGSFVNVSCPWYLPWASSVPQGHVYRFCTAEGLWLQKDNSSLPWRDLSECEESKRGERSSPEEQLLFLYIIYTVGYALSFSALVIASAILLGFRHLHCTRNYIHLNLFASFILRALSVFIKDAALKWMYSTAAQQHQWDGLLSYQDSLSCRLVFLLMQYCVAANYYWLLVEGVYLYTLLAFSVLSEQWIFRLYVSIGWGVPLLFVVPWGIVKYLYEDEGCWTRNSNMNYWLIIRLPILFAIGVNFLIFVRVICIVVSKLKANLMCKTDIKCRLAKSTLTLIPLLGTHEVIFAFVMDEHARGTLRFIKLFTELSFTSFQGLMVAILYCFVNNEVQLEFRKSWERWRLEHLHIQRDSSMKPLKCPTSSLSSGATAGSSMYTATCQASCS

Row | Compound | EC50 [1] | EC50 [2]
1 | CC[C@H](C)[C@H](NC(=O)[C@H](CC(C)C)NC(=O)[C@H](Cc1ccc(O)cc1)NC(=O)[C@H](CCC(=O)O)NC(=O)[C@@H](NC(=O)[C@H](Cc1ccccc1)NC(=O)[C@H](C)NC(=O)[C@H](CCC(=O)O)NC(=O)[C@H](CCC(N)=O)NC(=O)[C@H](C)NC(=O)[C@H](CCCCNC(=O)COCCOCCNC(=O)COCCOCCNC(=O)CC[C@H](NC(=O)CCCCCCCCCCCCCCCCCCC(=O)O)C(=O)O)NC(=O)[C@H](CCCCN)NC(=O)[C@H](CC(=O)O)NC(=O)[C@H](CC(C)C)NC(=O)[C@H](CC(C)C)NC(=O)[C@@H](NC(=O)[C@H](CO)NC(=O)[C@H](Cc1ccc(O)cc1)NC(=O)[C@H](CC(=O)O)NC(=O)[C@H](CO)NC(=O)[C@@H](NC(=O)[C@H](Cc1ccccc1)NC(=O)[C@@H](NC(=O)CNC(=O)[C@H](CCC(=O)O)NC(=O)C(C)(C)NC(=O)[C@@H](N)Cc1ccc(O)cc1)[C@@H](C)O)[C@@H](C)O)[C@@H](C)CC)[C@@H](C)CC)C(=O)N[C@@H](CCC(=O)O)C(=O)NCC(=O)NCC(=O)N1CCC[C@H]1C(=O)N[C@@H](CO)C(=O)N[C@@H](CO)C(=O)NCC(=O)N[C@@H](C)C(=O)N1CCC[C@H]1C(=O)N1CCC[C@H]1C(=O)N1CCC[C@H]1C(=O)N[C@@H](CO)C(N)=O [Example 261] (H-Y[Aib]EGTFTSDYSILLDKK([AEEA-AEEA-γGlu-C20 diacid])AQEAFIEYLIEGGPSSGAPPPS-NH2) | 0.0948 nM | 0.16 nM
2 | CC[C@H](C)[C@H](NC(=O)[C@H](CC(C)C)NC(=O)[C@H](Cc1ccc(O)cc1)NC(=O)[C@H](CCC(=O)O)NC(=O)[C@@H](NC(=O)[C@H](Cc1ccccc1)NC(=O)[C@H](C)NC(=O)[C@@H](NC(=O)[C@H](CCC(N)=O)NC(=O)[C@H](C)NC(=O)[C@H](CCCCNC(=O)COCCOCCNC(=O)COCCOCCNC(=O)CC[C@H](NC(=O)CCCCCCCCCCCCCCCCCCC(=O)O)C(=O)O)NC(=O)[C@H](CCCCN)NC(=O)[C@H](CC(=O)O)NC(=O)[C@H](CC(C)C)NC(=O)[C@H](CC(C)C)NC(=O)[C@@H](NC(=O)[C@H](CO)NC(=O)[C@H](Cc1ccc(O)cc1)NC(=O)[C@H](CC(=O)O)NC(=O)[C@H](CO)NC(=O)[C@@H](NC(=O)[C@H](Cc1ccccc1)NC(=O)[C@@H](NC(=O)CNC(=O)[C@H](CCC(=O)O)NC(=O)C(C)(C)NC(=O)[C@@H](N)Cc1ccc(O)cc1)[C@@H](C)O)[C@@H](C)O)[C@@H](C)CC)[C@@H](C)O)[C@@H](C)CC)C(=O)N[C@@H](CCC(=O)O)C(=O)NCC(=O)NCC(=O)N1CCC[C@H]1C(=O)N[C@@H](CO)C(=O)N[C@@H](CO)C(=O)NCC(=O)N[C@@H](C)C(=O)N1CCC[C@H]1C(=O)N1CCC[C@H]1C(=O)N1CCC[C@H]1C(=O)N[C@@H](CO)C(N)=O [Example 262] (H-Y[Aib]EGTFTSDYSILLDKK([AEEA-AEEA-γGlu-C20 diacid])AQTAFIEYLIEGGPSSGAPPPS-NH2) | 0.0943 nM | 0.13 nM
3 | CC[C@H](C)[C@H](NC(=O)[C@H](CC(C)C)NC(=O)[C@H](Cc1ccc(O)cc1)NC(=O)[C@H](CCC(=O)O)NC(=O)[C@@H](NC(=O)[C@H](Cc1ccccc1)NC(=O)[C@H](C)NC(=O)[C@H](CO)NC(=O)[C@H](CCC(N)=O)NC(=O)[C@H](C)NC(=O)[C@H](CCCCNC(=O)COCCOCCNC(=O)COCCOCCNC(=O)CC[C@H](NC(=O)CCCCCCCCCCCCCCCCCCC(=O)O)C(=O)O)NC(=O)[C@H](CCCCN)NC(=O)[C@H](CC(=O)O)NC(=O)[C@H](CC(C)C)NC(=O)[C@H](CC(C)C)NC(=O)[C@@H](NC(=O)[C@H](CO)NC(=O)[C@H](Cc1ccc(O)cc1)NC(=O)[C@H](CC(=O)O)NC(=O)[C@H](CO)NC(=O)[C@@H](NC(=O)[C@H](Cc1ccccc1)NC(=O)[C@@H](NC(=O)CNC(=O)[C@H](CCC(=O)O)NC(=O)C(C)(C)NC(=O)[C@@H](N)Cc1ccc(O)cc1)[C@@H](C)O)[C@@H](C)O)[C@@H](C)CC)[C@@H](C)CC)C(=O)N[C@@H](CCC(=O)O)C(=O)NCC(=O)NCC(=O)N1CCC[C@H]1C(=O)N[C@@H](CO)C(=O)N[C@@H](CO)C(=O)NCC(=O)N[C@@H](C)C(=O)N1CCC[C@H]1C(=O)N1CCC[C@H]1C(=O)N1CCC[C@H]1C(=O)N[C@@H](CO)C(N)=O [Example 263] (H-Y[Aib]EGTFTSDYSILLDKK([AEEA-AEEA-γGlu-C20 diacid])AQSAFIEYLIEGGPSSGAPPPS-NH2) | 0.0785 nM | 0.317 nM
4 | CC[C@H](C)[C@H](NC(=O)[C@H](CC(C)C)NC(=O)[C@H](Cc1ccc(O)cc1)NC(=O)[C@H](CCC(=O)O)NC(=O)[C@@H](NC(=O)[C@H](Cc1ccccc1)NC(=O)[C@H](C)NC(=O)[C@@H]1CCCN1C(=O)[C@H](CCC(N)=O)NC(=O)[C@H](C)NC(=O)[C@H](CCCCNC(=O)COCCOCCNC(=O)COCCOCCNC(=O)CC[C@H](NC(=O)CCCCCCCCCCCCCCCCC(=O)O)C(=O)O)NC(=O)[C@H](CCCCN)NC(=O)[C@H](CC(=O)O)NC(=O)[C@H](CC(C)C)NC(=O)[C@H](CC(C)C)NC(=O)[C@@H](NC(=O)[C@H](CO)NC(=O)[C@H](Cc1ccc(O)cc1)NC(=O)[C@H](CC(=O)O)NC(=O)[C@H](CO)NC(=O)[C@@H](NC(=O)[C@H](Cc1ccccc1)NC(=O)[C@@H](NC(=O)CNC(=O)[C@H](CCC(=O)O)NC(=O)C(C)(C)NC(=O)[C@@H](N)Cc1ccc(O)cc1)[C@@H](C)O)[C@@H](C)O)[C@@H](C)CC)[C@@H](C)CC)C(=O)N[C@@H](CCC(=O)O)C(=O)NCC(=O)NCC(=O)N1CCC[C@H]1C(=O)N[C@@H](CO)C(=O)N[C@@H](CO)C(=O)NCC(N)=O [Example 274] (H-Y[Aib]EGTFTSDYSILLDKK([AEEA-AEEA-γGlu-C18 diacid])AQPAFIEYLIEGGPSSG-NH2) | 14.5 nM | > 30 nM
5 | CC[C@H](C)[C@H](NC(=O)[C@H](CC(C)C)NC(=O)[C@H](Cc1ccc(O)cc1)NC(=O)[C@H](CCC(=O)O)NC(=O)[C@@H](NC(=O)[C@H](Cc1ccccc1)NC(=O)[C@H](C)NC(=O)[C@@H]1CCCN1C(=O)[C@H](CCC(N)=O)NC(=O)[C@H](C)NC(=O)[C@H](CCCCNC(=O)COCCOCCNC(=O)COCCOCCNC(=O)CC[C@H](NC(=O)CCCCCCCCCCCCCCCCC(=O)O)C(=O)O)NC(=O)[C@H](CCCCN)NC(=O)[C@H](CC(=O)O)NC(=O)[C@H](CC(C)C)NC(=O)[C@H](CC(C)C)NC(=O)[C@@H](NC(=O)[C@H](CO)NC(=O)[C@H](Cc1ccc(O)cc1)NC(=O)[C@H](CC(=O)O)NC(=O)[C@H](CO)NC(=O)[C@@H](NC(=O)[C@H](Cc1ccccc1)NC(=O)[C@@H](NC(=O)CNC(=O)[C@H](CCC(=O)O)NC(=O)C(C)(C)NC(=O)[C@@H](N)Cc1ccc(O)cc1)[C@@H](C)O)[C@@H](C)O)[C@@H](C)CC)[C@@H](C)CC)C(=O)N[C@@H](CCC(=O)O)C(=O)NCC(=O)NCC(N)=O [Example 275] (H-Y[Aib]EGTFTSDYSILLDKK([AEEA-AEEA-γGlu-C18 diacid])AQPAFIEYLIEGG-NH2) | 14 nM | > 30 nM
6 | CC[C@H](C)[C@H](NC(=O)[C@H](CC(C)C)NC(=O)[C@H](Cc1ccc(O)cc1)NC(=O)[C@@H](CCC(=O)O)NC(=O)[C@@H](NC(=O)[C@H](Cc1ccccc1)NC(=O)[C@H](CCC(=O)O)NC(=O)C(C)(C)NC(=O)[C@H](CCC(N)=O)NC(=O)[C@H](C)NC(=O)[C@H](CCCCN)NC(=O)[C@H](CCC(=O)O)NC(=O)[C@H](CC(=O)O)NC(=O)[C@H](CC(C)C)NC(=O)[C@](C)(CC(C)C)NC(=O)[C@@H](NC(=O)[C@H](CO)NC(=O)[C@H](Cc1ccc(O)cc1)NC(=O)[C@H](CC(=O)O)NC(=O)[C@H](CO)NC(=O)[C@@H](NC(=O)[C@](C)(Cc1ccccc1F)NC(=O)[C@@H](NC(=O)CNC(=O)[C@H](CCC(=O)O)NC(=O)C(C)(C)NC(=O)[C@@H](N)Cc1ccc(O)cc1)[C@@H](C)O)[C@@H](C)O)[C@@H](C)CC)[C@@H](C)CC)C(=O)N[C@@H](CCC(=O)O)C(=O)NCC(=O)NCC(=O)N1CCC[C@H]1C(=O)N[C@@H](CO)C(=O)N[C@@H](CO)C(=O)NCC(=O)N[C@@H](C)C(=O)N1CCC[C@H]1C(=O)N1CCC[C@H]1C(=O)N1CCC[C@H]1C(=O)N[C@@H](CO)C(N)=O [Example 276] (H-Y[Aib]EGT[αMePhe(2-F)]TSDYSI[αMeL]LDEKAQ[Aib]EFI[dE]YLIEGGPSSGAPPPS-NH2) | 0.108 nM | 0.0757 nM
7 | CC[C@H](C)[C@H](NC(=O)[C@H](CC(C)C)NC(=O)[C@H](Cc1ccc(O)cc1)NC(=O)[C@@H](CCC(=O)O)NC(=O)[C@@H](NC(=O)[C@H](Cc1ccccc1)NC(=O)[C@H](CCC(=O)O)NC(=O)C(C)(C)NC(=O)[C@H](CCC(N)=O)NC(=O)[C@H](C)NC(=O)[C@H](CCC(N)=O)NC(=O)[C@H](CCC(=O)O)NC(=O)[C@H](CC(=O)O)NC(=O)[C@H](CC(C)C)NC(=O)[C@](C)(CC(C)C)NC(=O)[C@@H](NC(=O)[C@H](CO)NC(=O)[C@H](Cc1ccc(O)cc1)NC(=O)[C@H](CC(=O)O)NC(=O)[C@H](CO)NC(=O)[C@@H](NC(=O)[C@](C)(Cc1ccccc1F)NC(=O)[C@@H](NC(=O)CNC(=O)[C@H](CCC(=O)O)NC(=O)C(C)(C)NC(=O)[C@@H](N)Cc1ccc(O)cc1)[C@@H](C)O)[C@@H](C)O)[C@@H](C)CC)[C@@H](C)CC)C(=O)N[C@@H](CCC(=O)O)C(=O)NCC(=O)NCC(=O)N1CCC[C@H]1C(=O)N[C@@H](CO)C(=O)N[C@@H](CO)C(=O)NCC(=O)N[C@@H](C)C(=O)N1CCC[C@H]1C(=O)N1CCC[C@H]1C(=O)N1CCC[C@H]1C(=O)N[C@@H](CO)C(N)=O [Example 277] (H-Y[Aib]EGT[αMePhe(2-F)]TSDYSI[αMeL]LDEQAQ[Aib]EFI[dE]YLIEGGPSSGAPPPS-NH2; N-terminus assumed) | 0.133 nM | 0.0554 nM
